Measurements: patent US20090214445A1, “DELIVERY SYSTEMS FOR MANAGING RELEASE OF FUNCTIONAL INGREDIENTS IN AN EDIBLE COMPOSITION” (Cadbury Adams USA LLC, priority 2005, published 2009)

Experiment: Discoloration (degradation) of sucralose during encapsulation
Type: physicochemical
Conditions: with polyvinyl acetate, 2% polyvinylpyrollidone, 1% magnesium stearate; tablets pressed at 25° C., heated to 80° C.
Description: As one example of a hydrophilic coating, sucralose was mixed with powdered polyvinyl acetate and 5% fat and extruded at 110° C. […] In an alternative encapsulation, sucralose was mixed with powdered polyvinyl acetate, 2% polyvinylpyrollidone and 1% magnesium stearate and pressed into tablets at 25° C. The tablets were then heated to 80° C., which softened the polymer and fused the polyvinylacetate with the sucralose. […] Thereafter, the tablets were cooled, ground and sized and analyzed. […] As another example, a polymer/sweetener matrix was prepared as described above in this paragraph. A solution of gum arabic was made and coated on the polymer/sweetener matrix particles using the method described in U.S. Pat. No. 3,196,827, the relevant portions of which are incorporated herein by reference. Coating levels were 20, 30, 40, and 50% for different samples. Chewing gums prepared with the coated polymer/sweetener matrix particles were chewed by a panel with bolus collection at 5, 10, 15, 20 minutes. Residual sucralose was analyzed in each chewed bolus.

discoloration of the sucralose: No discoloration
SMILES: OC[C@H]1O[C@H](O[C@]2(CCl)O[C@H](CCl)[C@@H](O)[C@@H]2O)[C@H](O)[C@@H](O)[C@H]1Cl [sucralose]
